US9539298B2, “Lissencephaly therapeutic agent” (OSAKA CITY UNIVERSITY, priority 2010, dated 2017)

What was measured:
[1] = test system: LIS1 heterozygous adult mice; test: LIS1 protein in adult mouse brains after SNJ-1945 intraperitoneal administration; type: in vivo; details: three weeks after birth
Procedure: SNJ-1945 was dissolved in dimethyl sulfoxide (DMSO) at a concentration of 100 mg/ml, and intraperitoneally injected to LIS1 heterozygous mice so that the administration amount was 100 μg/per gram of body weight at the time of three weeks after birth. To determine the effect of SNJ-1945 administration, LIS1 proteins of normal adult mice and LIS1 heterozygous adult mice (administered with SNJ-1945) were measured. In the SNJ-1945 administration group, the brain tissues were taken at 0 hour (immediately after the administration), 1 hour, 2 hours, 4 hours, 8 hours, 12 hours, 16 hours, 24 hours, 48 hours, and 72 hours after the administration to measure LIS1 protein, so as to determine the effect of SNJ-1945 over time. Six mice for each group were used for the measurement of LIS1 protein (n=6).
For the measurement of LIS1 protein amount, the weight of the brains was immediately measured as soon as the brains were removed.

[2] = test system: Lis1+/− mouse embryonic fibroblasts (MEF); test: Change in LIS1 protein amount in cells by SNJ-1945 (western blotting); type: cell-based; details: Lis1+/− MEF treated with SNJ-1945, western blotting, FIG. 1
Procedure: Fibroblasts (MEF; mouse embryonic fibroblasts) were established from five each of LIS1 gene hetero-deficient and wild-type mice (12.5- to 14.5-day-old embryos). The fibroblasts were established as follows. Pregnant mice were killed by cervical fracture, and the mouse embryos were immediately isolated under a germ-free condition. After the heads and visceral tissues were removed with tweezers, the mouse embryos were dissected with scissors. 10 ml of Trypsin-EDTA (Gibco, 25200) was added to each dissected tissue fraction, and the resulting liquid was placed in a 50 ml plastic tube (Nunc, 373687) to be subjected to 30-minute incubation at 37° C. After incubation, 10 ml of fetal bovine serum (Equitech-Bio, Inc., SFBM30-1798) was added, followed by pipetting with a 10 ml pipette (Nunc, 159633), thereby isolating the cells. After the cells were allowed to stand at room temperature for 5 minutes, the supernatant was collected. […]
Using the cells, the influence of SNJ-1945 on the LIS protein amount in each cell was analyzed as follows. […] After determination of protein quantity, 10 μg of protein was placed on each lane. After isolation using a 10% acrylic gel (SDS-PAGE), the protein was transferred to an Immobilon membrane (Millipore, IPVH00010), and LIS and DIC (dynein intermediate chain: reflecting the dynein amount) were detected. […] was detected to be used as a protein amount reference. […]

[3] = target: m-calpain (derived from porcine kidney) (Sus scrofa, UniProt I3LQD3); test: Measurement of inhibitory activity against m-calpain; type: biochemical; details: casein substrate, 30° C., 60 minutes; read-out: enzyme inhibitory activities (μM) m-calpain
Procedure: More specifically, 200 μL of a reaction solution containing 0.5 mg/mL casein, 50 mM Tris-HCl buffer (pH 7.4), 20 mM dithiothreitol and 1.0 nmol μ-calpain (derived from human red blood cells, Cosmo Bio Co., Ltd.) or m-calpain (derived from porcine kidney, Cosmo Bio Co., Ltd.) was added to individual 2.5 μL portions of DMSO solution containing a varying concentration of a test sample in a 96-well plate. Then, 50 μL of 20 mM aqueous calcium chloride was added thereto, and reaction was performed at 30° C. for 60 minutes. 100 μL of the reaction solution was transferred to another 96-well plate, and purified water (50 μL) and 50% aqueous solution (100 μL) of Protein Assay Dye Reagent (available from Bio-Rad Laboratories, Inc.; catalogue No. 500-600) were added thereto. […] The absorbance of a reaction mixture prepared in the same manner as mentioned above, except that a DMSO solution containing no sample was used as a control value; and the absorbance of a reaction mixture prepared in the same manner as mentioned above, except that a 1 mM aqueous EDTA solution (50 μL) was used in place of 20 mM aqueous calcium chloride, was used as a blank value. […] Inhibition rate (%){1−(measured value−blank test value)/(control value−blank test value)}×100

Chain of m-calpain (derived from porcine kidney) (I3LQD3 entry or part of it): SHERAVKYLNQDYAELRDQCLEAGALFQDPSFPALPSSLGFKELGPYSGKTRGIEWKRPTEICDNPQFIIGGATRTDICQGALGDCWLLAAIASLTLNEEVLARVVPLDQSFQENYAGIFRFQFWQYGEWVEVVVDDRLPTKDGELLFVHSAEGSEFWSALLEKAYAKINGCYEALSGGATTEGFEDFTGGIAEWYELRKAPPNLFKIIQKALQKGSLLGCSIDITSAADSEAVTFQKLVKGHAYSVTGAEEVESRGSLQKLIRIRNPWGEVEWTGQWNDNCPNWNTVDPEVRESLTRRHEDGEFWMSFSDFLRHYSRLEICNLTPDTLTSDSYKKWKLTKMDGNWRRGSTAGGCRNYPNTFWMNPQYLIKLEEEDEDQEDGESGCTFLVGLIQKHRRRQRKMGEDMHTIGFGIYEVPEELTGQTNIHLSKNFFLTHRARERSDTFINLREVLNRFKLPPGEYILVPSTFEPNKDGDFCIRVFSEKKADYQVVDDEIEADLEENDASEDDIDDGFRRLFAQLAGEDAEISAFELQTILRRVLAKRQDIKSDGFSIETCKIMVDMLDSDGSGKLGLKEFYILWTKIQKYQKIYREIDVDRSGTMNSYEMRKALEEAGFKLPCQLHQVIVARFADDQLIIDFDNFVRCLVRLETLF
Chain of m-calpain (derived from porcine kidney) (P04574 whole entry, further chain): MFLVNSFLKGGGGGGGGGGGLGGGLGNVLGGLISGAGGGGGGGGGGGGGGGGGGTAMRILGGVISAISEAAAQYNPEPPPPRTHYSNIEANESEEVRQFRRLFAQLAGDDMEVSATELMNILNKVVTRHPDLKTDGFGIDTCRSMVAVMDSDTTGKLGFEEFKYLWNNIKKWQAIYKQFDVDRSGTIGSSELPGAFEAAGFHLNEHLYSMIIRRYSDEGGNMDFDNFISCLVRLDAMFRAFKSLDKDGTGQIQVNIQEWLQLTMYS

With `COCCOCCOC(=O)N[C@@H](CC(C)C)C(=O)N[C@@H](Cc1ccccc1)C(=O)C(=O)NC1CC1` [compound 17, ((1S)-1-((((1S)-1-Benzyl-2,3-dioxo-3-(cyclopropylamino)propyl)amino)carbonyl)-3-methylbutyl)carbamic acid 5-methoxy-3-oxapentyl ester] the “LIS1 protein amount in adult brain” value ([1]; 100 μg per gram of body weight IP, FIG. 8) was “recovered to substantially the normal level”, the “duration of the effect on LIS1 protein after a single dose” value ([1]; 100 μg/g IP) was “continued for at least three days” and the “LIS protein amount in cells” value [2] was “the decrease in the LIS protein amount was recovered”. The IC50 [3] was 0.1 µM.
